This is an account of results in patent US11311520B2, “Substituted dihydroimidazopyridinediones as MKNK1 and MKNK2 inhibitors” (Bayer Pharma Aktiengesellschaft, priority 2017, dated 2022).

For orientation: IC50 means the concentration at which inhibition is half-maximal.

Each structure is given as a SMILES string.

This assay concerns the target human full-length MKNK1 (Homo sapiens (Human), UniProt Q9BUB5, T344D). The assay can be described thus: MKNK1 kinase high ATP assay (TR-FRET). In kind it is biochemical. The following applies: 2 mM ATP, 15 min preincubation with enzyme, GST-MKNK1 (T344D). The protocol: MKNK1 Kinase High ATP Assay
MKNK1-inhibitory activity at high ATP of compounds of the present invention after their preincubation with MKNK1 was quantified employing the TR-FRET-based MKNK1 high ATP assay as described in the following paragraphs.
A recombinant fusion protein of Glutathione-S-Transferase (GST, N-terminally) and human full-length MKNK1 (amino acids 1-424 and T344D of accession number BAA 19885.1), expressed in insect cells using baculovirus expression system and purified via glutathione sepharose affinity chromatography, was purchased from Carna Biosciences (product no 02-145) and used as enzyme. As substrate for the kinase reaction the biotinylated peptide biotin-Ahx-IKKRKLTRRKSLKG (SEQ ID NO: 1) (C-terminus in amide form) was used, which can be purchased e.g. from the company Biosyntan (Berlin-Buch, Germany)
For the assay 50 nL of a 100 fold concentrated solution of the test compound in DMSO was pipetted into a black low volume 384 well microtiter plate (Greiner Bio-One, Frickenhausen, Germany), 2 μL of a solution of MKNK1 in aqueous assay buffer [50 mM HEPES pH 7.5, 5 mM MgCl2, 1.0 mM dithiothreitol, 0.005% (v/v) Nonidet-P40 (Sigma)] was added and the mixture was incubated for […] at 22° C. to allow pre-binding of the test compounds to the enzyme before the start of the kinase reaction. Then the kinase reaction was started by the addition of 3 μL of a solution of adenosine-tri-phosphate (ATP, 3.3 mM=>final conc. in the 5 μL assay volume is 2 mM) and substrate (0.1 μM=>final conc. in the 5 μL assay volume is 0.06 μM) in assay buffer and the resulting mixture was incubated for a reaction time of 30 min at 22° C. The concentration of MKNK1 was adjusted depending of the activity of the enzyme lot and was chosen appropriate to have the assay in the linear range, typical concentrations were in the range of 0.003 μg/mL. The reaction was stopped by the addition of 5 μL of a solution of TR-FRET detection reagents (5 nM streptavidine-XL665 [Cisbio Bioassays, Codolet, France] and 1 nM anti-ribosomal protein S6 (pSer236)-antibody from Invitrogen [#44921G] and 1 nM LANCE EU-W1024 labeled ProteinG [Perkin-Elmer, product no. AD0071]) in an aqueous EDTA-solution (100 mM EDTA, 0.1% (w/v) bovine serum albumin in 50 mM HEPES pH 7.5).
The resulting mixture was incubated for 1 h at 22° C. to allow the formation of complex between the phosphorylated biotinylated peptide and the detection reagents. Subsequently the amount of phosphorylated substrate was evaluated by measurement of the resonance energy transfer from the Eu-chelate to the streptavidine-XL. Therefore, the fluorescence emissions at 620 nm and 665 nm after excitation at 350 nm were measured in a TR-FRET reader, e.g. a Rubystar (BMG Labtechnologies, Offenburg, Germany) or a Viewlux (Perkin-Elmer). The ratio of the emissions at 665 nm and at […] was taken as the measure for the amount of phosphorylated substrate. The data were normalised (enzyme reaction without inhibitor=0% inhibition, all other assay components but no enzyme=100% inhibition).
Background: TR-FRET usually uses a lanthanide donor and a delayed reading to cut background.

human full-length MKNK1, sequence (Q9BUB5 other isoform, or with tags, fused parts or gaps T344D): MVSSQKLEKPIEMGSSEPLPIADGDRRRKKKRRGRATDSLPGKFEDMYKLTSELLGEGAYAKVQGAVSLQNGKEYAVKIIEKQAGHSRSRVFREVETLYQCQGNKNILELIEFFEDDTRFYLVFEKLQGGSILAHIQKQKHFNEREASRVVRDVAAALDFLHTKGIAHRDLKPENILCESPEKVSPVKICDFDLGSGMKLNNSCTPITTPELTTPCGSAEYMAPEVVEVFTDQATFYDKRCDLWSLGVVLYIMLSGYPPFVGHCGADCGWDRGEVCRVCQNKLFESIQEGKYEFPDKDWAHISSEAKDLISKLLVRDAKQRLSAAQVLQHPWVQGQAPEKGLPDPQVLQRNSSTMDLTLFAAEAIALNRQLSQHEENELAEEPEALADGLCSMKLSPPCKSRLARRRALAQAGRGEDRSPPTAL

Take `Cc1cc(Nc2ncnc3c2CNC3)c(=O)n2c1C(=O)NC21CCCCC1` [Example 36, 6′-(6,7-Dihydro-5H-pyrrolo[3,4-d]pyrimidin-4-ylamino)-8′-methyl-2′H-spiro[cyclohexane-1,3′-imidazo[1,5-a]pyridine]-1′,5′-dione]: 19.1 nM corresponded to half-maximal inhibition (IC50).
With `Cc1cc(Nc2ncnc3sc(C(=O)N4CC(NC(=O)OC(C)(C)C)C4)cc23)c(=O)n2c1C(=O)NC21CCC(F)(F)CC1` [Example 83, tert-Butyl [1-({4-[(4,4-difluoro-8′-methyl-1′,5′-dioxo-1′,5′-dihydro-2′H-spiro[cyclohexane-1,3′-imidazo[1,5-a]pyridin]-6′-yl)amino]thieno[2,3-d]pyrimidin-6-yl}carbonyl)azetidin-3-yl]carbamate], the IC50 worked out at 12.2 nM.
In the case of `Cc1cc(Nc2ncnc3ccc(Cl)cc23)c(=O)n2c1C(=O)NC2(C)C` [Example 166, 6-[(6-Chloroquinazolin-4-yl)amino]-3,3,8-trimethyl-2,3-dihydroimidazo[1,5-a]pyridine-1,5-dione] it was 45.9 nM; in that of `COc1ccc2c(Nc3cc(C)c4n(c3=O)C3(CCCCC3)NC4=O)ncnc2c1` [Example 116, 6′-[(7-Methoxyquinazolin-4-yl)amino]-8′-methyl-2′H-spiro[cyclohexane-1,3′-imidazo[1,5-a]pyridine]-1′,5′-dione], 4 nM.
As for `Cc1cc(Nc2ncnc3sc(C(=O)O)c(C)c23)c(=O)n2c1C(=O)NC21CCC(F)(F)CC1` [Example 93, 4-[(4,4-Difluoro-8′-methyl-1′,5′-dioxo-1′,5′-dihydro-2′H-spiro[cyclohexane-1,3′-imidazo[1,5-a]pyridin]-6′-yl)amino]-5-methylthieno[2,3-d]pyrimidine-6-carboxylic acid], the IC50 was 42 nM.
In the case of `Cc1cc(Nc2ncnc3cc(Cl)ccc23)c(=O)n2c1C(=O)NC21CS(=O)(=O)C1` [Example 181, 6-[(7-chloroquinazolin-4-yl)amino]-8-methyl-2H-spiro[imidazo[1,5-a]pyridine-3,3′-thietane]-1,5-dione 1′,1′-dioxide] it was 104 nM; in that of `Cc1cc(Nc2ncnc3cccc(C)c23)c(=O)n2c1C(=O)NC21CCCCC1` [Example 123, 8′-Methyl-6′-[(5-methylquinazolin-4-yl)amino]-2′H-spiro[cyclohexane-1,3′-imidazo[1,5-a]pyridine]-1′,5′-dione], 9.7 nM; in that of `Cc1cc(Nc2ncnc3ccc(C(F)(F)F)cc23)c(=O)n2c1C(=O)NC21CCCCC1` [Example 124, 8′-Methyl-6′-{[6-(trifluoromethyl)quinazolin-4-yl]amino}-2′H-spiro[cyclohexane-1,3′-imidazo[1,5-a]pyridine]-1′,5′-dione], 49.9 nM.
In the case of `Cc1cc(Nc2ncnc3sc(C(=O)O)cc23)c(=O)n2c1C(=O)NC2(C)C` [Example 136, 4-[(3,3,8-Trimethyl-1,5-dioxo-1,2,3,5-tetrahydroimidazo[1,5-a]pyridin-6-yl)amino]thieno[2,3-d]pyrimidine-6-carboxylic acid] it was 122 nM; in that of `Cc1cc(Nc2ncnc3sc(C(=O)N4CC(N)C4)cc23)c(=O)n2c1C(=O)NC21CCC(F)(F)CC1` [Example 84, 6′-({6-[(3-Aminoazetidin-1-yl)carbonyl]thieno[2,3-d]pyrimidin-4-yl}amino)-4,4-difluoro-8′-methyl-2′H-spiro[cyclohexane-1,3′-imidazo[1,5-a]pyridine]-1′,5′-dione], 10.8 nM.
In the case of `Cc1cc(Nc2ncnc3sc(C(=O)N4C[C@H]5C[C@@H]4CO5)cc23)c(=O)n2c1C(=O)NC21CCC(F)(F)CC1` [Example 88, 4,4-Difluoro-8′-methyl-6′-({6-[(1R,4R)-2-oxa-5-azabicyclo[2.2.1]hept-5-ylcarbonyl]thieno[2,3-d]pyrimidin-4-yl}amino)-2′H-spiro[cyclohexane-1,3′-imidazo[1,5-a]pyridine]-1′,5′-dione] it was 13.5 nM; in that of `Cc1cc(Nc2ncnc3sc(C(=O)N4CC(C#N)C4)cc23)c(=O)n2c1C(=O)NC21CCCC1` [Example 61, 1-({4-[(8′-Methyl-1′,5′-dioxo-1′,5′-dihydro-2′H-spiro[cyclopentane-1,3′-imidazo[1,5-a]pyridin]-6′-yl)amino]thieno[2,3-d]pyrimidin-6-yl}carbonyl)azetidine-3-carbonitrile], 5.9 nM; in that of `Cc1cc(Nc2ncnc3sc(C(=O)NCCN(C)C)cc23)c(=O)n2c1C(=O)NC21CCCC1` [Example 59, N-[2-(Dimethylamino)ethyl]-4-[(8′-methyl-1′,5′-dioxo-1′,5′-dihydro-2′H-spiro[cyclopentane-1,3′-imidazo[1,5-a]pyridin]-6′-yl)amino]thieno[2,3-d]pyrimidine-6-carboxamide], 2.7 nM.
`Cc1cc(Nc2ncnc3occc23)c(=O)n2c1C(=O)NC21CCCCC1` [Example 52, 6′-(Furo[2,3-d]pyrimidin-4-ylamino)-8′-methyl-2′H-spiro[cyclohexane-1,3′-imidazo[1,5-a]pyridine]-1′,5′-dione] yielded an IC50 of 13 nM.
Under `Cc1cc(Nc2ncnc3[nH]ncc23)c(=O)n2c1C(=O)NC2(C)C` [Example 133, 3,3,8-Trimethyl-6-(1H-pyrazolo[3,4-d]pyrimidin-4-ylamino)-2,3-dihydroimidazo[1,5-a]pyridine-1,5-dione] stands 10.1 nM; under `Cc1cc(Nc2ccnc3[nH]cnc23)c(=O)n2c1C(=O)NC21CCCCC1` [Example 57, 6′-(3H-Imidazo[4,5-b]pyridin-7-ylamino)-8′-methyl-2′H-spiro[cyclohexane-1,3′-imidazo[1,5-a]pyridine]-1′,5′-dione], 6.2 nM; under `Cc1cc(Nc2ncnc3sc(C(=O)N4CCC(N(C)C)CC4)cc23)c(=O)n2c1C(=O)NC21CCCC1` [Example 64, 6′-[(6-{[4-(Dimethylamino)piperidin-1-yl]carbonyl}thieno[2,3-d]pyrimidin-4-yl)amino]-8′-methyl-2′H-spiro[cyclopentane-1,3′-imidazo[1,5-a]pyridine]-1′,5′-dione], 5.5 nM.
Molecule `Cc1cc(Nc2ncnc3c(F)cccc23)c(=O)n2c1C(=O)NC21CCCCC1` [Example 111, 6′-[(8-Fluoroquinazolin-4-yl)amino]-8′-methyl-2′H-spiro[cyclohexane-1,3′-imidazo[1,5-a]pyridine]-1′,5′-dione] registered an IC50 of 517 nM.
Under `Cc1cc(Nc2ncnc3sc(C(=O)N(C)CCN(C)C)cc23)c(=O)n2c1C(=O)NC21CCCC1` [Example 60, N-[2-(Dimethylamino)ethyl]-N-methyl-4-[(8′-methyl-1′,5′-dioxo-1′,5′-dihydro-2′H-spiro[cyclopentane-1,3′-imidazo[1,5-a]pyridin]-6′-yl)amino]thieno[2,3-d]pyrimidine-6-carboxamide] stands 6.3 nM; under `Cc1cc(Nc2ncnc3c2CNC3)c(=O)n2c1C(=O)NC21CCC1` [Example 168, 6′-(6,7-Dihydro-5H-pyrrolo[3,4-d]pyrimidin-4-ylamino)-8′-methyl-2′H-spiro[cyclobutane-1,3′-imidazo[1,5-a]pyridine]-1′,5′-dione], 49.5 nM.
In the case of `Cc1cc(Nc2ncnc3ccc(Cl)cc23)c(=O)n2c1C(=O)NC21CCC(F)(F)CC1` [Example 99, 6′-[(6-chloroquinazolin-4-yl)amino]-4,4-difluoro-8′-methyl-2′H-spiro[cyclohexane-1,3′-imidazo[1,5-a]pyridine]-1′,5′-dione] it was 18.8 nM; in that of `Cc1cc(Nc2ncnc3sccc23)c(=O)n2c1C(=O)NC21CCCCC1` [Example 5, 8′-Methyl-6′-(thieno[2,3-d]pyrimidin-4-ylamino)-2′H-spiro[cyclohexane-1,3′-imidazo[1,5-a]pyridine]-1′,5′-dione], 6.4 nM.
In the case of `Cc1cc(Nc2ncnc3cc(F)cc(F)c23)c(=O)n2c1C(=O)NC21CCCCC1` [Example 114, 6′-[(5,7-Difluoroquinazolin-4-yl)amino]-8′-methyl-2′H-spiro[cyclohexane-1,3′-imidazo[1,5-a]pyridine]-1′,5′-dione] it was 8.6 nM.
